Test results from patent US12653796B2, “Compounds for use (in particular RIPA-56) in the prevention and/or treatment of non-alcoholic fatty liver disease” (SORBONNE UNIVERSITE, priority 2019, dated 2026).
Residues, ends and D or L forms follow the SMILES beside them. *: point of attachment. Cbz = O=C(OCc1ccccc1)*; CH2F = FC*

Legend:
RIPK1 = assay: ELISA of RIPK1 released in supernatant of L929 cells exposed to TNFα; assay type: cell-based, murine; details: 20 μM, 2 h, then TNFα (25 ng/mL) 6 h
Description: FIG. 12. […] Results are shown as mean±SEM of six replicates.
L929 cells (LGC Standards, Molsheim, France), were cultured in Dulbecco's modified Eagle's medium (DMEM) (ThermoFisher, Massachusetts, USA) supplemented with 10% fetal bovine serum (Eurobio, Courtaboeuf, France), penicillin (100 IU/ml), streptomycin (0.1 mg/ml), and L-glutamine (0.03%) (ThermoFisher). […] AML-12 (alpha mouse liver-12) hepatocytes (LGC Standards) were cultured in DMEM/F12 Medium (ThermoFisher) supplemented with 10% fetal bovine serum (Eurobio), 10 μg/ml insulin, 5.5 μg/ml transferrin, 5 ng/ml selenium and 40 ng/ml dexamethasone (Sigma, Missouri, USA). AML-12 hepatocytes were stimulated with insulin (#I0516, 10 nM; Sigma) for 15 minutes.
Protein concentrations of human RIPK1 (SEE640Hu; Could-Clone Corp., Texas, USA), human MLKL (SER645Hu; Could-Clone Corp.) and murine RIPK1 (CSB-EL019735MO; Cusabio, Texas, USA) were determined by an ELISA kit according to the manufacturer's instructions.

[1] = tested on: primary human hepatocytes; assay: Fat depletion in primary human hepatocytes with free fatty acid-induced steatosis; assay type: cell-based; details: 20 μM, 24 h
Description: FIG. 7. RIPA-56 treatment induces fat depletion in primary human hepatocytes. Primary human hepatocytes were isolated from steatotic human livers of patients with NAFLD (n=5) (A-C) or from non-steatotic human livers and incubated with free fatty acids to induce steatosis or without (W/O) (n=5) (D-G), and treated with RIPA-56 (20 μM) or DMSO (vehicle) for 24 h. (A, D) Representative Oil Red-O and DAPI images; (B, E) Quantification of Oil Red-O staining normalized for the number of DAPI-stained nuclei; (C, F) Quantification of intracellular triglycerides normalized to protein content; (G) mRNA levels of CPT1A, MTTP and APOB100 were assessed by RT-qPCR, and shown relative to DMSO-treated hepatocytes. Results are shown as mean±SEM; n.s., not significant; *p<0.05; **p<0.01; scale bars, 100 μm. These findings are representative of five independent cell preparations.
FIG. 9. MLKL controls intrahepatic triglyceride content in hepatocytes. (A-D) Primary human hepatocytes were isolated from non-steatotic human livers and incubated with free fatty acids to induce steatosis, or without (W/O), and treated with necrosulfonamide (NSA) (20 μM) or DMSO (vehicle) for 24 h. (A) Representative Oil Red-O and DAPI images; (B) Quantification of Oil Red-O staining normalized for the number of DAPI-stained nuclei; (C) Quantification of intracellular triglycerides normalized to protein content. (D) mRNA levels of CPT1A, MTTP and APOB100 were assessed by RT-qPCR and shown relative to DMSO-treated hepatocytes; (E-H) AML-12 cells were knocked-out (KO) for MLKL and compared with control (CTL) cells, which underwent a similar CRISPR-Cas9 selection as KO cells; (E) Whole-cell lysates were extracted from CTL and MLKL-KO AML-12 cells and analyzed by Western blot using antibodies against MLKL, Tubulin and GAPDH; (F) Representative Oil Red-O and DAPI images; (G) Oil Red-O staining and (H) triglycerides quantification in fat-loaded cell lines. Results are shown as mean±SEM; n.s., not significant; *p<0.05; **p<0.01; ***p<0.001; scale bars, 100 μm. These experiments are representative of five independent cell preparations.
The liver fragment was initially perfused with a prewarmed (37° C.) calcium-free buffer supplemented with 5 mmol/L ethylene glycol tetra-acetic acid (Sigma) followed by perfusion with a prewarmed (37° C.) buffer containing 6 mmol/L calcium (CaCl2) and collagenase 0.05% ([…]) (Sigma). The liver fragment was then gently shaken to disperse liver cells in Hepatocyte Wash Medium (Life Technologies, Villebon-sur-Yvette, France). The resulting cell suspension was filtered through a gauze-lined funnel. Cells were then centrifuged at low speed. The supernatant, containing damaged or dead hepatocytes, non-parenchymal cells and debris were removed and pelleted hepatocytes were re-suspended in Hepatocyte Wash Medium. The count of viable cells was determined using trypan blue exclusion. Freshly isolated normal (steatosis <5%) or steatotic (>10%) hepatocytes were resuspended in Williams medium E (Life technologies) containing 10% fetal calf serum (Eurobio), penicillin (200 U/mL)-streptomycin (200 μg/mL), Fungizone (2.5 μg/mL) and insulin (0.1 U/mL) (Life Technologies). The cells were seeded in 12-, 24- and 96-well plates pre-coated with type I collagen at a density of 0.78×10^6, 0.4×10^6 and 0.5×10^5 viable cells/well, respectively, and incubated overnight at 37° C. in a 5% CO2 atmosphere. The medium was replaced with fresh complete hepatocyte medium supplemented with 1 μmol/L hydrocortisone hemisuccinate (Laboratoires SERB, Paris, France) and hepatocytes were maintained in this medium. To induce steatosis in normal hepatocytes, PHH were incubated with free fatty acid (FFA) mixtures of oleic acid and palmitic acid in a molar ratio 2:1 (500:250 μmol/L), respectively, and with 1% fatty-acid-free BSA for 48 hours.
Total RNA was purified from liver tissue using TRIzol reagent (ThermoFisher) and a RNeasy Mini kit (Qiagen, Courtaboeuf, France). […]

necrostatin-1 [Nec-1]
RIPK1 in the supernatant (RIPK1): undetectable

COC(=O)C[C@H](NC(=O)[C@H](C)NC(=O)[C@@H](NC(=O)OCc1ccccc1)C(C)C)C(=O)CF [Zvad] (Cbz-Val-Ala-Asp(OMe)-CH2F)
RIPK1 in the supernatant (RIPK1): released

COc1nccnc1NS(=O)(=O)c1ccc(NC(=O)/C=C/c2ccc([N+](=O)[O-])s2)cc1 [necrosulfonamide, reference compound]
intracellular lipid droplets (Oil Red-O) ([1]; FFA-induced steatosis): significantly decreased | intracellular triglyceride content ([1]; FFA-induced steatosis): significantly decreased | CPT1A expression (mRNA) ([1]; RT-qPCR): upregulated
